In US5545669A, “Anti-inflammatory compounds” (priority 1994, dated 1996):

Experiments:
[1] = test system: PGE2 release by human monocytes; assay: Assay (f): stimulated eicosanoid release by human monocytes, Prostaglandin E2; format: cell-based; conditions: Monocyte, 0.25 h, A23187 1 μM, 15 min
Experimental: (§1) Human Monocyte Isolation. Leukocyte-rich leukopaks obtained from Biological Specialties (Lansdale, Pa.) were collected from male volunteers who were not taking antiinflammatory drugs. Leukopaks were centrifuged (90×g for 15 min) twice to remove the platelet-rich plasma. The cell pellet was washed by centrifugation and resuspended in HBSS without Ca^2+ or Mg^2+. Histopaque 1077 was layered under the cell suspension and centrifuged at 400×g for 30 min to obtain the buffy coat. The interfacial buffy coat, containing monocytes and lymphocytes, was removed and saved. The buffy coat was washed twice with HBSS Without Ca^2+ or Mg^2+ by centrifugation. The cell pellet (4-6×10^8 cells/30 mls) was resuspended in iso-osmotic media (RPMI-1640, 10% heat inactivated fetal bovine serum (FBS), 0.2 mM L-glutamine, 2.5 mM HEPES) and layered over an equal volume of 46% Percol mixture (10X PBS/Percol; 9.25/0.75) and 54% iso-osmotic media and centrifuged for 30 min at 1000×g (Marshall and Roshak, Biochem. Cell Biol. 71: 331-339, 1993). The monocyte population located at the interface of the Percoll gradient was removed and washed twice in HBSS without Ca^2+ or Mg^2+.
(§2) Measurement of Stimuli-Induced Eicosanoid Release Monocytes (5×10^6 /ml) were incubated as a suspension in serum-free RPMI-1640 medium containing the vehicle DMSO (<1%) or drug for 30 min at 27° C. after which vehicle or stimuli was added for the indicated time. The stimulating agent is solubilized in DMSO and appropriate vehicle controls were included in all experiments. The amount of stimuli was chosen from the linear portion of a concentration versus product curve usually representing 60-80% maximal stimulation over the indicated incubation time at 37° C. (A23187, 1 μM,(15 min). The reaction was terminated by reduction of pH through addition of citric acid and centrifugation (10 min, 400×g, 4° C.). Cell viability was monitored before and after experiments using trypan blue exclusion. The cell-free media was decanted and stored at -70° C. until analyzed. Prostaglandin E2 and LTC4 were directly measured in cell-free media using enzyme immunoassay (EIA) kits purchased from Caymen Chemical Co. (Ann Arbor, Mich.). Sample or standard dilutions were made with appropriate media and analyzed in triplicate. Results were obtained by extrapolation from a standard curve prepared in the media and expressed as pg or ng/ml of sample.

[2] = test system: LTC4 release by human monocytes; assay: Assay (f): stimulated eicosanoid release by human monocytes, LTC4; format: cell-based; conditions: Monocyte, 0.25 h, A23187 1 μM, 15 min
Experimental: as §1, §2

[3] = test system: TPA-induced Mouse Ear Inflammation; assay: Assay (g): TPA-induced mouse ear inflammation (ear edema and MPO); format: in vivo; conditions: for TPA % change in edema / change in MPO for TPA model: topically administered, doses 0.2 (dexamethasone), 0.1 (scalaradial), 0.3 (WY 50,295), dose unit not given
Experimental: (§3) Male Balb/c inbred mice were obtained from Charle River Breeding Laboratories (Kingston, N.Y.). Within a single experiment mice (22-25 g) were age-matched. These in vivo experiments typically involved use of 5-6 animals/group.
TPA (12-0-tetradecanoylphorbol 13-acetate) (Sigma Chemical Company) in acetone (4 mg/20 ml) was applied to the inner and outer surfaces of the left ear of BALB/c male mice. The thickness of both ears was then measured with a dial micrometer (Mitutoyo, Japan) at both 2 and 4 hours after treatment, and the data expressed as the change in thickness (10^-3 cm) between treated and untreated ears. […] After measuring the edema, the inflammed left ears were removed and stored at -70° C. until they were assayed for MPO (myeloperoxidase) activity where appropriate.
(§4) On the day of the assay, partially thawed ear tissues were minced and then homogenized (10% w/v) with a Tissumizer homogenizer (Tekmar Co.) in 50 mM phosphate buffer (pH 6) containing 0.5% HTAB. The tissue homogenates were taken through three cycles of freeze-thaw, followed by brief sonication (10 sec). The method of Bradley et al. was used with modifications as described. […] Supernatant MPO activity was quantified kinetically (change in absorbance measured over 3 min, sampled at 15-sec intervals) using a Beckman DU-7 spectrophotometer and a Kinetics Analysis package (Beckman Instruments, Inc.). One unit of MPO activity is defined as that degrading one micromole of peroxide per minute at 25° C.
Statistical analysis was done using Student's "t" test.

[4] = test system: Arachidonic acid induced ear inflammation; assay: Assay (h): Arachidonic acid induced ear inflammation (ear edema and MPO); format: in vivo, mouse; conditions: for effect in the AA ear model (in words): at concentrations which were effective in the TPA ear model
Experimental: as §3, §4
Arachidonic acid is dissolved in acetone (ling/ear) to the left ear of BALB/c male mice. The thickness of both ears was measured with a constant pressure thickness guage 1 hour after treatment and the data expressed as the change in thickness between treated and untreated ears. Test compounds or vehicle are given at the time of AA applciation. The inflammatory cell infiltration is measured by MPO activity as described above in the TPA ear edema assay. After the edema measurements are made, the inflamed ears are removed and assayed for MPO activity.

[5] = topically administered, doses 0.2 (dexamethasone), 0.1 (scalaradial), 0.3 (WY 50,295), dose unit not given

| IC50 [1] [nM] | IC50 [2] [nM] | Structure (SMILES) | TPA % change in edema [3] [%] | effect in the AA ear model (in words) [4] | AA change in edema [4, 5] [%] | also measured |
| --- | --- | --- | --- | --- | --- | --- |
| > 3000 | 50 | CCC(C)(C)c1ccc(Oc2ccc(C(F)(F)F)cc2NS(=O)(=O)c2cc(C(F)(F)F)cc(C(F)(F)F)c2)c(C(=O)O)c1 [Example 17, 2-[2-[3,5-Bis(trifluoromethyl)phenyl]sulfonamido-4-trifluoromethylphenoxy]-5-(1,1-dimethylpropyl)benzoic acid] | – | – | – | – |
| – | – | CN(c1cc(C(F)(F)F)ccc1Oc1ccccc1C(=O)O)S(=O)(=O)c1cc(C(F)(F)F)cc(C(F)(F)F)c1 [Example 27, 2-[2-[3,5-bis(Trifluoromethyl)phenyl-N-methylsulfonamido]-4-trifluoromethylphenoxy]benzoic acid] | – | – | – | inhibition in the MPO assay ([3]; mouse ear inflammation, MPO): positive inhibition; response in the Edema aspects of this animal model ([3]; mouse ear inflammation, edema): not a significant response |
| – | – | CC(=O)O[C@H]1C[C@@H]2[C@@]3(C)CCCC(C)(C)[C@@H]3CC[C@@]2(C)[C@@H]2CC=C(C=O)[C@H](C=O)[C@@]12C [scalaradial] | -46 | little or no effect | -11 | – |
| – | – | C[C@H](C(=O)O)c1ccc2cc(OCc3ccc4ccccc4n3)ccc2c1 [WY 50,295] | -18 | strongly inhibits inflammation | -50 | change in MPO for TPA model [3]: -36 |
| > 30000 | 2000 | O=C(O)c1ccccc1Oc1ccc(C(F)(F)F)cc1NS(=O)(=O)c1ccc2ccccc2c1 [Example 3, 2-[2-(2-Naphthylsulfonamido)-4-trifluoromethylphenoxy]benzoic acid] | – | – | – | – |
| – | – | C[C@@H]1C[C@H]2[C@@H]3CCC4=CC(=O)C=C[C@]4(C)[C@@]3(F)[C@@H](O)C[C@]2(C)[C@@]1(O)C(=O)CO [dexamethasone] | -50 | little or no effect | -10 | change in MPO for TPA model [3]: -54; change in MPO for AA [4, 5]: 0 |
| 10000 to 20000 | 1000 | CCCCCCCCS(=O)(=O)Nc1ccccc1Oc1ccccc1C(=O)O [Example 11, 2-[2-(Octylsulfonamido)phenoxy]benzoic acid] | – | – | – | – |
| > 30000 | 1000 | Cc1ccc(Oc2ccccc2C(=O)O)c(NS(=O)(=O)c2cc(C(F)(F)F)cc(C(F)(F)F)c2)c1 [Example 12, 2-[2-[3,5-bis(Trifluoromethyl)phenylsulfonamido]-4-methylphenoxy]benzoic acid] | – | – | – | – |
| > 100000 | 1000 | O=C(O)c1ccccc1Oc1ccccc1NS(=O)(=O)c1cc(C(F)(F)F)cc(C(F)(F)F)c1 [Example 10, 2-[2-[3,5-Bis(trifluoromethyl)phenylsulfonamido]phenoxy]benzoic acid] | – | – | – | – |
